pEC50: −log10 of the molar value.
Legend:
glucokinase (GK) enzyme = target: T1, glucokinase (GK) enzyme (Homo sapiens, UniProt P35557); experiment: In-vitro glucokinase (GK) activation assay (coupled with glucose-6-phosphate dehydrogenase, absorbance at 340); format: biochemical; settings: glucose 2.5 mM; for activity at 0.1 µM / activity at 1 µM / activity at 5 µM / activity at 10 µM: read-out: % of GK activity wrt DMSO; for pEC50: GK enzyme 0.2 units, ATP 1 mM
T1 sequence (P35557 1-465): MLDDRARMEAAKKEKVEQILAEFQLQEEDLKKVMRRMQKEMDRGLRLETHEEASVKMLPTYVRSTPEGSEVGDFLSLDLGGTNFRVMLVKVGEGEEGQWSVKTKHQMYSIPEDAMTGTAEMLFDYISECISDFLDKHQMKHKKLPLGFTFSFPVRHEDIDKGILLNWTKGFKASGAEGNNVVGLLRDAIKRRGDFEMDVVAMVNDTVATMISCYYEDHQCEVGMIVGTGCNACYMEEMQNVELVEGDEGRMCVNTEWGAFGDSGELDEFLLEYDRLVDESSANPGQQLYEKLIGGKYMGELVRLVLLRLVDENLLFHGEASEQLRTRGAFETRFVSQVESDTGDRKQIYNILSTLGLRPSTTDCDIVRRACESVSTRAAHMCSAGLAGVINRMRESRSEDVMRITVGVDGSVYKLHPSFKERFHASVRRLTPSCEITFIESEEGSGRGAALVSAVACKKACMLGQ
Procedure: The compound of the invention was incubated with glucokinase (GK) enzyme (0.2 units) for 10 minutes in assay buffer at 26° C. After incubation, addition of glucose-6-phosphate dehydrogenase (2.5 units), ATP (1 mM) and glucose (2.5 mM). Absorbance is measured at 340 nm for 15 minutes with 10 second interval using UV transparent plate in kinetic mode on Spectramax-190 at 30° C.

Male C57 mice = experiment: Oral glucose tolerance test (OGTT), overnight fasted; format: in vivo; settings: for % change in glucose levels Vs Control: treated at −30 min, oral glucose load 3 g/kg at 0 min; for % change in glucose levels Vs Control, Mean: Mean over the time points, oral glucose load 3 g/kg
Procedure: Effect of Glucokinase Activators (GKAs) of the Present Invention on Glucose Reduction Determined by Oral Glucose Tolerence Test (OGTT):
Male C57 mice, aged 8-10 weeks were fasted overnight and subjected to the treatment of selected GK activator at time denoted as −30 min. At time 0 min, mice were given oral glucose load of 3 g/kg, and the glucose excursion was observed upto 120 min. The percentage change against the change in glucose levels of control are mentioned in the table 2.

| Compound | activity at 0.1 µM (glucokinase (GK) enzyme; 0.1 uM compound) | activity at 1 µM (glucokinase (GK) enzyme; 1 uM compound) | activity at 5 µM (glucokinase (GK) enzyme; 5 uM compound) | activity at 10 µM (glucokinase (GK) enzyme; 10 uM compound) | pEC50 (glucokinase (GK) enzyme) | % change in glucose levels Vs Control (Male C57 mice; 0 min Vs −30 min) | % change in glucose levels Vs Control (Male C57 mice; 30 min Vs −30 min) | % change in glucose levels Vs Control (Male C57 mice; 60 min Vs −30 min) | % change in glucose levels Vs Control (Male C57 mice; 120 min Vs −30 min) | % change in glucose levels Vs Control, Mean (Male C57 mice) | % of GK activity wrt DMSO (glucokinase (GK) enzyme; 0.1 uM compound) | % of GK activity wrt DMSO (glucokinase (GK) enzyme; 1 uM compound) | % of GK activity wrt DMSO (glucokinase (GK) enzyme; 5 uM compound) | % of GK activity wrt DMSO (glucokinase (GK) enzyme; 10 uM compound) |
| --- | --- | --- | --- | --- | --- | --- | --- | --- | --- | --- | --- | --- | --- | --- |
| Cc1nnc(-c2ccc(Oc3cc(O[C@H]4CCN(C)C4=O)cc(C(=O)Nc4nccs4)c3)cc2)o1 [Example 68, (S)-3-(4-(5-Methyl-1,3,4-oxadiazol-2-yl)phenoxy)-5-((1-methyl-2-oxopyrrolidin-3-yl)oxy)-N-(thiazol-2-yl)benzamide] | 144% | 238% | 255% | 271% | 7.47 | −46.7 ± 0.8% | −25.6 ± 7.2% | −51.5 ± 4.9% | −58.2 ± 6.7% | −46.6% |  |  |  |  |
| Cc1nnc(-c2ccc(Oc3cc(O[C@H]4CCN(C)C4=O)cc(C(=O)Nc4ncc(C#N)s4)c3)cc2)o1 [Example 69, (S)-(5-cyanothiazol-2-yl)-3-(4-(5-methyl-1,3,4-oxadiazol-2-yl)phenoxy)-5-((1-methyl-2-oxopyrrolidin-3-yl)oxy)benzamide] |  |  |  |  |  | −58.6 ± 5.6% | −91.2 ± 1.3% | −84.4 ± 0.9% | −72.9 ± 5.6% | −75.2% | 116.7% | 170.1% | 249.2% | 255.3% |
| Cc1nnc(-c2ccc(Oc3cc(O[C@@H]4CCN(C)C4=O)cc(C(=O)Nc4nccs4)c3)cc2)o1 [Example 77, (R)-3-(4-(5-methyl-1,3,4-oxadiazol-2-yl)phenoxy)-5-((1-methyl-2-oxopyrrolidin-3-yl)oxy)-N-(thiazol-2-yl)benzamide] | 112% | 141% | 230% | 261% | 6.45 | −4.8 ± 7.5% | −15.1 ± 6.6% | −13.9 ± 7.3% | −22.0 ± 3.3% | −11.2% |  |  |  |  |
